Data set [1] in a line: chemical stability tests by 1H and 11B{1H} NMR spectroscopy in aqueous DMSO-d6. The class given is physicochemical. The conditions noted are these: for chemical stability in aqueous DMSO-d6 (NMR), in words / stability in aqeous DMSO-d6 (1H, 11B{1H}-NMR) / stability versus binding affinity assay time frame: aqueous DMSO-d6; for stability versus binding affinity assay time frame: assay time 90 min. The method, then: A high chemical and metabolic stability of the compounds is required for biological evaluation and application in vivo. The method of choice for evaluating the chemical stability was ^1H and ^11B{^1H} NMR spectroscopy, with the latter being particularly suitable for recognizing deboronation. Since the in vitro binding assays are performed in aqueous media, the stability tests should be performed under similar conditions. However, due to the high hydrophobicity of the carborane moieties, target compounds 9–11 and 15–17 were not soluble in aqueous solution without the addition of dimethyl sulfoxide (DMSO). Since a maximum of 1% DMSO can be used in the in vitro binding assay, stability measurements were performed in aqueous DMSO-d6 to see especially if deboronation occurs in the presence of water. Approximately 10 mg of each compound (9–11 and 15–17) was dissolved in the deuterated NMR solvent and monitored via NMR spectroscopy in time intervals of a few minutes (after the addition of the solvent to the respective solid compound) to at least 23 days for the o- (9 and 15) and m-carborane derivatives (10 and LUZ5) and beyond one year for the p-carborane analogues (11 and 17) (Figures S68–S79).
Stability tests were performed with ^1H and ^11B{^1H} NMR spectroscopy. Approximately 10 mg of each compound was dissolved in aqueous DMSO-d6 and measured directly thereafter and at increasing time intervals from a few minutes to a couple of days or beyond a year.
The stability of LUZ5 was additionally investigated under the conditions described above, but in the presence of larger amounts of H2O or D2O. For this, LUZ5 was dissolved in DMSO-d6 (0.5 mL) and either H2O (0.1 mL) or D2O (0.1 mL) was added.

Another data set deals with T1, human CB2R (Homo sapiens, UniProt P34972).
T1 construct: expressed in transfected cells; host or cells: CHO cells (membrane homogenates)
T1 sequence (P34972 whole entry): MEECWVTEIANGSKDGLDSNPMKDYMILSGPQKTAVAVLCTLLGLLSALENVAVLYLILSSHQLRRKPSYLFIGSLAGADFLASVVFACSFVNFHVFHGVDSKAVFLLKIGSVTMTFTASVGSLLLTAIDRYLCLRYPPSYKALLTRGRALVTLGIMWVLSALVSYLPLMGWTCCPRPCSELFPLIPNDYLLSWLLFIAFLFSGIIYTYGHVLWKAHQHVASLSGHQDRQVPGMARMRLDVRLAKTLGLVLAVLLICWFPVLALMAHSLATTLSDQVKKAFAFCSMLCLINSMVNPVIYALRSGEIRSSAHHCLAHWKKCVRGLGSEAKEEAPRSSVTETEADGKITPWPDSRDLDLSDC
The experiment in a line: competitive binding affinity assay, membrane homogenates of hCB2R CHO cells, radioligand [3H]WIN55212-2. The conditions noted are these: hCB2R CHO membranes. The method, then: Target compounds 9–11, 15, LUZ5, and 17 were evaluated in a competitive binding affinity assay using hCB2R Chinese hamster ovary (CHO) cells and the agonistic high-affinity CB2R radioligand [^3H]WIN55212-2 (Figure S96).
(§1) The in vitro binding affinity assays were performed with membrane homogenates from Chinese hamster ovary (CHO) cells stably transfected with the human CB2R according to a previously published protocol.[95] The screening for CB1R binding affinity determination was performed with membrane homogenates from CHO cells stably transfected with the human CB1R as described previously.[96]

In another data set the target is CB2R. The conditions noted are these: reference compound; read-out: KiCB2R; cited from earlier work.
The conditions of data set [2]: cited from earlier work.
The conditions of data set [3]: rat, in vivo; cited from earlier work.
Data set [4] deals with mouse liver microsomes (MLMs). The experiment in a line: in vitro metabolism with mouse liver microsomes and NADPH, HPLC-UV-MS. In kind it is in vitro ADME. To be noted: NADPH, similar conditions. A general note: Liver microsomes are a subcellular fraction often used to study metabolism.
Procedure: Each of the compounds was incubated with mouse liver microsomes (MLMs) in phosphate-buffered saline (PBS) in the presence of nicotinamide adenine dinucleotide phosphate (NADPH) for 30 and 60 min at 37 °C, according to a literature protocol.[81],[82] After the addition of cold acetonitrile, the obtained supernatants were analyzed by HPLC-UV-MS (exemplified chromatogram and spectrum in Figures S91 and S92). […] In addition, negative control samples without NADPH or without NADPH and MLM were prepared and analyzed for each target compound.
For in vitro evaluation of metabolites, the following instruments were used: BioShake iQ (QUANTIFOIL Instruments, Jena, Germany), Centrifuge 5424 (Eppendorf, Hamburg, Germany), UltiMate 3000 UHPLC System (Thermo Scientific, Germering, Germany) including a DAD detector (DAD-3000RS) coupled to an MSQ Plus single quadrupole mass spectrometer (Thermo Scientific, Austin, TX). […] In brief, each of the test compounds (dissolved in DMSO, final concentration of 10 μM, final DMSO percentage of 1%) and MLMs (final protein concentration of 1 mg/mL) in PBS (pH 7.4) were preincubated in PBS (pH 7.4) for 5 min at 37 °C. Similarly preincubated NADPH (final concentration of 2 mM) was added to start the incubation. […] The supernatants were stored at 4 °C until they were measured by HPLC-UV-MS. […]
A further data set concerns the target T2, human CB1R (Homo sapiens, UniProt P21554).
T2 construct: expressed in transfected cells; host or cells: CHO cells (membrane homogenates)
The experiment in a line: CB1R binding affinity screening, membrane homogenates of CHO cells with human CB1R, radioligand [3H]SR141716A. To be noted: human CB1R CHO membranes. As to the method:
as §1

[5] abbreviates: individual values behind the mean, read-out: KiCB2R individual values.

Where “and” joins values, the source holds several entries; their conditions need not be identical. Identical values can stand only once. Entries after “also recorded” stand apart in the source; their conditions may differ. Like-named read-outs stand apart in the source and are kept apart here. Where only a bound is given, the exact number is not on record here.

T2 sequence (P21554 whole entry): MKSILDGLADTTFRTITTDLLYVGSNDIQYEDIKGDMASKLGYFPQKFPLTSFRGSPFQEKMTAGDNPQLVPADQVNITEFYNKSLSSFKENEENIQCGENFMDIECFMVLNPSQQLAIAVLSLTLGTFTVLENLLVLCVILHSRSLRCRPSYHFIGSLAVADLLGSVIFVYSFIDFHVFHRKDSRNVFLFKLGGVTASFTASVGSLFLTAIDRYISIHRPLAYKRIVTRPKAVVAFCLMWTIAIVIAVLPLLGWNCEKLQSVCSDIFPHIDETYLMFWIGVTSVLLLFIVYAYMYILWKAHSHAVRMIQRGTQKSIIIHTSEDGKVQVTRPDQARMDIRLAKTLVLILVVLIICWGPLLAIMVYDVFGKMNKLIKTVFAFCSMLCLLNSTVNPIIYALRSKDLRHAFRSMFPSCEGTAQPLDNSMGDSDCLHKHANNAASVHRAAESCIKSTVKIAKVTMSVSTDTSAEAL

Regarding “1-(4-Fluorobutyl)-2-oxo-N-(1,2-dicarba-closo-dodecaboranyl)-1,2-dihydro-1,8-naphthyridine-3-carboxamide [Compound 9]”, in data set [1], the “chemical stability in aqueous DMSO-d6 (NMR), in words” value (from here on “chemical stability in aqueous DMSO-d6”) is “additional signals were visible already after 2 h”; the “stability in aqeous DMSO-d6 (1H, 11B{1H}-NMR)” value (“stability in aqeous DMSO-d6” for short) was under 0.083 days; the “stability versus binding affinity assay time frame” value is on record as “too low”. Also, the Ki on human CB2R (mean, read-out: KiCB2R mean) is 40.8 nM.
Turning to “1-(4-Fluorobutyl)-2-oxo-N-(1,7-dicarba-closo-dodecaboranyl)-1,2-dihydro-1,8-naphthyridine-3-carboxamide [Compound 10]”, in data set [1], the “stability in aqeous DMSO-d6” value was under 8 days and the “stability versus binding affinity assay time frame” value is “stability beyond the binding affinity assay time frame”. In addition, the Ki on human CB2R (setting [5]) is 43.8 nM and 26.9 nM. Further, the Ki at human CB2R (mean, read-out: KiCB2R mean) came to 35.4 nM.
“1-(4-Fluorobutyl)-2-oxo-N-(1,7-dicarba-closo-dodecaboranyl)-1,2-dihydro-1,8-naphthyridine-3-carboxamide [Compound 11]”: in data set [1], the “chemical stability in aqueous DMSO-d6” value is given as “stable for more than one year; also recorded: good chemical stability”; the “stability in aqeous DMSO-d6” value was “? 491 d”; the “stability versus binding affinity assay time frame” value is reported as “stability beyond the binding affinity assay time frame”. On human CB2R (setting [5]), the Ki was 2.77 nM and 5.01 nM. In addition, the Ki at human CB2R (mean, read-out: KiCB2R mean) was 3.9 nM.
For `O=C(NC12CC3CC(CC(C3)C1)C2)c1cc2cccnc2n(CCCCF)c1=O` [LU13], on CB2R, the Ki was 0.6 nM.
As to `Cc1s/c(=N\C(=O)C2C(C)(C)C2(C)C)n(CCCC[18F])c1C` [[^18F]3], the “intact radioligand in brain” value in data set [2] (brain samples) was 36%. Further, in data set [2] (mouse, in vivo), the “intact radiotracer in plasma” value is 7%.
Turning to `Cc1s/c(=N\C(=O)C2C(C)(C)C2(C)C)n(CCOCC[18F])c1C` [[^18F]4], the “intact radiotracer in plasma” value in data set [3] is 25%.
As for `C[C@]12CC[C@H]3[C@@H](CCC4=CC(=O)CC[C@@]43C)[C@@H]1CC[C@@H]2O` [testosterone], the “conversion of positive control” value in data set [4] was “complete conversion”.
As to “(Z)-N-[3-(4-Fluorobutyl)-4,5-dimethylthiazole-2(3H)-ylidene]-(1,2-dicarba-closo-dodecaboranyl)-carboxamide [Compound 15]”, in data set [1], the “chemical stability in aqueous DMSO-d6” value is “good chemical stability”; the “stability in aqeous DMSO-d6” value is under 3 days; the “stability versus binding affinity assay time frame” value is recorded as “stability beyond the binding affinity assay time frame”. Moreover, the Ki at human CB2R (setting [5]) is 3.28 nM and 3.26 nM. Also, on human CB2R (mean, read-out: KiCB2R mean), the Ki was determined as 3.3 nM.
As for “(Z)-N-[3-(4-Fluorobutyl)-4,5-dimethylthiazole-2(3H)-ylidene]-(1,7-dicarba-closo-dodecaboranyl)-carboxamide [LUZ5]”, in data set [1] (D2O in DMSO-d6 1:5 (v/v), 11B{1H} NMR), the “stable in DMSO-d6 with increased amounts of D2O” value is given as “at least 8 days”. The “stable in DMSO-d6 with increased amounts of H2O” value in data set [1] (H2O in DMSO-d6 1:5 (v/v), 11B{1H} NMR) is “at least 19 days”. The “stability in aqeous DMSO-d6” value in data set [1] is given as “? 23 d”. In addition, the “stability versus binding affinity assay time frame” value in data set [1] is “stability beyond the binding affinity assay time frame”. The Ki on human CB1R was over 10000 nM; at human CB2R (mean, read-out: KiCB2R mean), 0.8 nM.
As to “(Z)-N-[3-(4-Fluorobutyl)-4,5-dimethylthiazole-2(3H)-ylidene]-(1,12-dicarba-closo-dodecaboranyl)-carboxamide [Compound 17]”, in data set [1], the “chemical stability in aqueous DMSO-d6” value is given as “stable for more than one year; also recorded: good chemical stability”; the “stability in aqeous DMSO-d6” value is recorded as “? 491 d”; the “stability versus binding affinity assay time frame” value is given as “stability beyond the binding affinity assay time frame”. The Ki at human CB2R (setting [5]) was 1.36 nM and 1.17 nM. The Ki at human CB2R (mean, read-out: KiCB2R mean) was 1.3 nM.

(Values after PMC10782483, “Development of the High-Affinity Carborane-Based Cannabinoid Receptor Type 2 PET Ligand [^18F]LUZ5-d8” (Journal of Medicinal Chemistry, 2023).)
